Measured values: PubChem BioAssay AID248 (DTP/NCI, 2004)
Several values for one entry are separate records, joined by “and”; a condition that tells them apart may be missing. Equal entries are not always repeated. Toxic doses and inconclusive results are not listed.

Test system: L1210 leukemia ip in BDF1 mice, survival T/C
Experiment: NCI In Vivo Anticancer Drug Screen. Data for tumor model L1210 Leukemia (intraperitoneal) in B6D2F1 (BDF1) mice
Settings: endpoint: mean survival time, higher = longer survival
How it was run: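 Mice bearing the transplanted tumor received compound or vehicle. Survival of the treated group was divided by that of the vehicle-treated control group to give the ratio.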

[1] = dose: 100.0 mg/kg/injection, schedule: Q01DX009 (ip), vehicle: saline with Tween-80
[2] = dose: 200.0 mg/kg/injection, schedule: Q01DX009 (ip), vehicle: saline with Tween-80
[3] = dose: 100.0 mg/kg/injection, schedule: Q04DX002 (ip), vehicle: saline
[4] = dose: 200.0 mg/kg/injection, schedule: Q04DX002 (ip), vehicle: saline
[5] = dose: 400.0 mg/kg/injection, schedule: Q04DX002 (ip), vehicle: saline
[6] = dose: 100.0 mg/kg/injection, schedule: Q01DX009 (ip), vehicle: gum acacia
[7] = dose: 100.0 mg/kg/injection, schedule: Q04DX003 (ip), vehicle: gum acacia
[8] = dose: 200.0 mg/kg/injection, schedule: Q01DX009 (ip), vehicle: gum acacia
[9] = dose: 200.0 mg/kg/injection, schedule: Q04DX003 (ip), vehicle: gum acacia
[10] = dose: 400.0 mg/kg/injection, schedule: Q01DX009 (ip), vehicle: gum acacia
[11] = dose: 400.0 mg/kg/injection, schedule: Q04DX003 (ip), vehicle: gum acacia
[12] = dose: 100.0 mg/kg/injection, schedule: Q04DX003 (ip), vehicle: Klucel (hydroxypropylcellulose) (HPC)
[13] = dose: 200.0 mg/kg/injection, schedule: Q04DX003 (ip), vehicle: Klucel (hydroxypropylcellulose) (HPC)
[14] = dose: 400.0 mg/kg/injection, schedule: Q04DX003 (ip), vehicle: Klucel (hydroxypropylcellulose) (HPC)
[15] = dose: 50.0 mg/kg/injection, schedule: Q01DX001 (ip), vehicle: carboxymethylcellulose (CMC)
[16] = dose: 100.0 mg/kg/injection, schedule: Q01DX001 (ip), vehicle: carboxymethylcellulose (CMC)
[17] = dose: 200.0 mg/kg/injection, schedule: Q01DX001 (ip), vehicle: carboxymethylcellulose (CMC)
[18] = dose: 400.0 mg/kg/injection, schedule: Q01DX001 (ip), vehicle: carboxymethylcellulose (CMC)
[19] = dose: 100.0 mg/kg/injection, schedule: Q04DX003 (ip), vehicle: saline with Tween-80
[20] = dose: 100.0 mg/kg/injection, schedule: Q04DX003 (ip), vehicle: saline
[21] = dose: 200.0 mg/kg/injection, schedule: Q04DX003 (ip), vehicle: saline
[22] = dose: 400.0 mg/kg/injection, schedule: Q04DX003 (ip), vehicle: saline
[23] = dose: 6.25 mg/kg/injection, schedule: Q01DX009 (ip), vehicle: saline
[24] = dose: 12.5 mg/kg/injection, schedule: Q01DX009 (ip), vehicle: saline

With COC1/C=C\CC2=CCCC=C2CC1 (centres undefined) the T/C (dose: 50.0 mg/kg/injection, schedule: Q01DX009 (ip), vehicle: saline with Tween-80) was 112 % of control, the T/C [1] was 123 % of control and the T/C [2] was 105 % of control.
With O=C(O)CN=CC(O)C(O)C(O)C(O)CO (centres undefined) the T/C (dose: 12.5 mg/kg/injection, schedule: Q04DX002 (ip), vehicle: saline) was 105 % of control, the T/C (dose: 25.0 mg/kg/injection, schedule: Q04DX002 (ip), vehicle: saline) was 88 % of control and the T/C (dose: 50.0 mg/kg/injection, schedule: Q04DX002 (ip), vehicle: saline) was 105 % of control. The T/C [3] was 123 % of control, the T/C [4] was 103 % of control and the T/C [5] was 106 % of control.
With Cc1sc2ccccc2[n+]1CCC(=O)O the T/C [6] was 94 % of control, the T/C [7] was 95 % of control and the T/C [8] was 101 % of control. The T/C [9] was 96 % of control, the T/C [10] was 100 % of control and the T/C [11] was 95 % of control.
In the case of O=C(O)/C=C/c1ccc(Cl)cc1Cl, the T/C [1] is reported as 88 % of control and the T/C [2] is reported as 87 % of control.
With O=C(Nc1ccc(NC2=NCCN2)cc1)c1cc(Cl)cc(C(=O)Nc2ccc(NC3=NCCN3)cc2)c1 the T/C (dose: 7.5 mg/kg/injection, schedule: Q01DX010 (ip), vehicle: saline) was 100 % of control, the T/C (dose: 15.0 mg/kg/injection, schedule: Q01DX010 (ip), vehicle: saline) was 95 % of control and the T/C (dose: 15.0 mg/kg/injection, schedule: Q01DX Z (ip), vehicle: saline) was 105 % of control. The T/C (dose: 30.0 mg/kg/injection, schedule: Q01DX Z (ip), vehicle: saline) was 105 % of control.
In the case of O=C1c2cc(Br)cc(Br)c2NCCCC1(Br)Br, the T/C [12] is reported as 94 % of control, the T/C [13] is reported as 97 % of control and the T/C [14] is reported as 94 % of control.
With O=C(Nc1ccccc1C(F)(F)F)OCCOc1ccccc1 the T/C [6] was 92 % of control, the T/C [8] was 88 % of control and the T/C [10] was 93 % of control.
With CCOC(=O)C(Cl)C(C)(O)c1ccccc1 (centres undefined) the T/C (dose: 100.0 mg/kg/injection, schedule: Q04DX002 (ip), vehicle: saline with Tween-80) was 95 % of control and the T/C (dose: 200.0 mg/kg/injection, schedule: Q04DX002 (ip), vehicle: saline with Tween-80) was 95 % of control.
OCCCc1cc(Br)ccc1O was tested, and the T/C [15] was 105 % of control, the T/C [16] was 100 % of control and the T/C [17] was 100 % of control. The T/C [18] was 92 % of control.
For O=C(COc1cccc(Cl)c1)Nc1ccccc1, the T/C [1] was 94 % of control, the T/C [2] was 100 % of control and the T/C (dose: 400.0 mg/kg/injection, schedule: Q01DX009 (ip), vehicle: saline with Tween-80) was 89 % of control.
With CC(N)CN (centres undefined) the T/C [3] was 100 % of control, the T/C [4] was 89 % of control and the T/C [5] was 103 % of control.
With CC(=O)Oc1cc2c(cc1OC(C)=O)C(=O)CCC=C2 the T/C (dose: 25.0 mg/kg/injection, schedule: Q04DX003 (ip), vehicle: Klucel (hydroxypropylcellulose) (HPC)) was 104 % of control, the T/C (dose: 50.0 mg/kg/injection, schedule: Q04DX003 (ip), vehicle: Klucel (hydroxypropylcellulose) (HPC)) was 106 % of control and the T/C (dose: 100.0 mg/kg/injection, schedule: Q01DX009 (ip), vehicle: saline sonified) was 95 % of control. The T/C [12] was 98 % of control and 115 % of control, the T/C (dose: 200.0 mg/kg/injection, schedule: Q01DX009 (ip), vehicle: saline sonified) was 97 % of control and the T/C [13] was 102 % of control. The T/C (dose: 400.0 mg/kg/injection, schedule: Q01DX009 (ip), vehicle: saline sonified) was 99 % of control and the T/C [14] was 100 % of control.
O=C(O)/C=C/C(=O)Nc1cccc2c1C(=O)c1ccccc1-2 was tested, and the T/C [19] was 94 % of control.
For O=C(Cc1ccc(Cl)cc1)N/N=C/c1ccc([N+](=O)[O-])s1, the T/C [20] was 93 % of control, the T/C [21] was 93 % of control and the T/C [22] was 90 % of control.
For CSc1cc(C(=O)O)nc(SC)n1, the T/C (dose: 100.0 mg/kg/injection, schedule: Q01DX Z (ip), vehicle: methylcellulose (MC)) was 97 % of control.
With Cc1ccc(C[As+](c2ccccc2)(c2ccccc2)c2ccccc2)cc1 the T/C (dose: 10.0 mg/kg/injection, schedule: Q01DX001 (ip), vehicle: saline) was 97 % of control, the T/C (dose: 20.0 mg/kg/injection, schedule: Q01DX001 (ip), vehicle: saline) was 96 % of control and the T/C (dose: 40.0 mg/kg/injection, schedule: Q01DX001 (ip), vehicle: saline) was 96 % of control.
With C[N+](C)(CC(=O)Nc1ccc(Cl)c(Cl)c1)CC(=O)c1ccc(Cl)cc1 the T/C [23] was 96 % of control, the T/C [24] was 96 % of control and the T/C (dose: 25.0 mg/kg/injection, schedule: Q01DX009 (ip), vehicle: saline) was 89 % of control. The T/C [19] was 92 % of control.
With O=C(OC(CCN1CCCCC1)c1ccccc1)c1ccccc1 (centres undefined) the T/C [19] was 100 % of control.
In the case of COc1ccc(C(C#N)N2CCOCC2)cc1 (centres undefined), the T/C (dose: 50.0 mg/kg/injection, schedule: Q01DX009 (ip), vehicle: Klucel (hydroxypropylcellulose) (HPC)) is reported as 92 % of control, the T/C (dose: 100.0 mg/kg/injection, schedule: Q01DX009 (ip), vehicle: Klucel (hydroxypropylcellulose) (HPC)) is reported as 93 % of control and the T/C [12] is reported as 96 % of control. The T/C (dose: 200.0 mg/kg/injection, schedule: Q01DX009 (ip), vehicle: Klucel (hydroxypropylcellulose) (HPC)) was 96 % of control and the T/C [13] was 91 % of control.
With CCCCCCCCC1NC1CCCCCCCC(=O)OC (centres undefined) the T/C (dose: 25.0 mg/kg/injection, schedule: Q04DX002 (ip), vehicle: Klucel (hydroxypropylcellulose) (HPC)) was 101 % of control, the T/C (dose: 50.0 mg/kg/injection, schedule: Q04DX002 (ip), vehicle: Klucel (hydroxypropylcellulose) (HPC)) was 107 % of control and the T/C (dose: 100.0 mg/kg/injection, schedule: Q04DX002 (ip), vehicle: Klucel (hydroxypropylcellulose) (HPC)) was 98 % of control.
In the case of COc1cccc2cc[nH]c12, the T/C [15] is reported as 105 % of control, the T/C [16] is reported as 100 % of control and the T/C [17] is reported as 112 % of control. For the same compound, the T/C [18] was 100 % of control.
For CCC(NC(=O)c1cnc2ccccc2n1)C(=O)O (centres undefined), the T/C [20] was 101 % of control, the T/C [21] was 92 % of control and the T/C [22] was 90 % of control.
COC(=O)c1cn[nH]c1/N=N/N(C)CCO was tested, and the T/C (dose: 100.0 mg/kg/injection, schedule: Q01DX001 (ip), vehicle: saline) was 113 % of control, the T/C [20] was 119 % of control and the T/C (dose: 200.0 mg/kg/injection, schedule: Q01DX001 (ip), vehicle: saline) was 117 % of control. The T/C (dose: 200.0 mg/kg/injection, schedule: Q01DX009 (ip), vehicle: saline) was 163 % of control, the T/C [21] was 119 % of control and the T/C (dose: 400.0 mg/kg/injection, schedule: Q01DX001 (ip), vehicle: saline) was 107 % of control. The T/C [22] was 119 % of control.
With c1ccc(NC2=NCCCN2)cc1 the T/C (dose: 12.5 mg/kg/injection, schedule: Q01DX001 (ip), vehicle: saline with Tween-80) was 102 % of control, the T/C (dose: 25.0 mg/kg/injection, schedule: Q01DX001 (ip), vehicle: saline with Tween-80) was 97 % of control and the T/C (dose: 50.0 mg/kg/injection, schedule: Q01DX001 (ip), vehicle: saline with Tween-80) was 91 % of control.
C=CC(=O)NCCN(C)C was tested, and the T/C (dose: 75.0 mg/kg/injection, schedule: Q01DX001 (ip), vehicle: saline) was 104 % of control, the T/C (dose: 150.0 mg/kg/injection, schedule: Q01DX001 (ip), vehicle: saline) was 93 % of control and the T/C (dose: 300.0 mg/kg/injection, schedule: Q01DX001 (ip), vehicle: saline) was 104 % of control.
For CC(=O)c1ccc(N2CCN(c3ccc(C(C)=O)cc3)CC2)cc1, the T/C [20] was 93 % of control, the T/C [21] was 95 % of control and the T/C [22] was 98 % of control.
In the case of C1=Cc2ccccc2C(c2ccccn2)c2ccccc21, the T/C [7] is reported as 90 % of control, the T/C [9] is reported as 97 % of control and the T/C [11] is reported as 93 % of control.
With CC1CC[N+]2(C)CCCC12 (centres undefined) the T/C [23] was 100 % of control and the T/C [24] was 100 % of control.
With CCC1C(=O)N(C)c2ccccc21 (centres undefined) the T/C (dose: 100.0 mg/kg/injection, schedule: Q01DX001 (ip), vehicle: acetone) was 100 % of control, the T/C (dose: 200.0 mg/kg/injection, schedule: Q01DX001 (ip), vehicle: acetone) was 96 % of control and the T/C (dose: 400.0 mg/kg/injection, schedule: Q01DX001 (ip), vehicle: acetone) was 97 % of control.
